This data set in a line: Dissolving rate and solubility in organic materials versus crystalline form. Particulars: in polymers and lubricants; compared to the prior art crystalline form.

As for “bis(2,4-dicumylphenyl)pentaerythritol diphosphite [Example 1]”, the “rate of dissolving in organic materials” value is reported as “faster rate of dissolving” and the “solubility in organic materials” value is “better solubility”.
